Data from patent US11771779B2, “Non-metallic magnetic resonance contrast agent” (HADASIT MEDICAL RESEARCH SERVICES & DEVELOPMENT LIMITED, priority 2018, dated 2023).
Like-named read-outs stand apart in the source and are kept apart here.

Experiments:
[1] = mice; cited from earlier work
[2] = rats; cited from earlier work
[3] = dogs; up to 120 mg/kg daily i.v. for 28 days; cited from earlier work
[4] = Estimated ^15N T1 (FIG. 1); settings: same order of magnitude as [^15N,D9]choline, called a speculation
Description: FIG. 1 ^15N T1s of selected molecules in water (H2O) and D2O measured at 5.8 T; (a) denotes Na^15NO3; (b) denotes solid-state polarization in D2O and dissolution in D2O.; (c) denotes solid-state polarization in D2O and dissolution in H2O.; In this case, during the decay in solution the nitrogen positions are fully protonated as confirmed by the respective split pattern of the signal (not shown); a, b, and c—determined experimentally; (d) denotes estimation.

[5] = previous results; cited from earlier work
[6] = for T1 in the 1st min of hyperpolarization decay: 0-60 s; for T1 in the 2nd min of hyperpolarization decay: 65-120 s
Description: The dissolution process is detailed in the results section. […] Unless otherwise stated, the dissolved hyperpolarized solution was directly injected to a screw cup 10 mm NMR tube in a 5.8T NMR spectrometer via a PTFE line of about 2.4 m length with 3 s of He(g) chase. This line was wrapped with a heating tape (MRC, Holon, Israel) that enabled control over the temperature of the dissolution medium arriving to the NMR tube directly or to a collection tube in the fringe field of the spectrometer. ^15N-Nuclear Magnetic Resonance (NMR) spectra were continuously recorded immediately at the start of the dissolution process. […] In the experiments in body fluids and in experiments in which the hyperpolarized solution was first cooled to temperatures below room temperature, the dissolution media was first collected in a conical tube placed in the spectrometer's fringe field, and then was injected by syringe via a PEEK line to the NMR tube that was placed in the magnet.
For heating this hyperpolarized solution prior to arrival to the NMR tube, the PTFE line leading the hyperpolarized solution out of the spin polarization device was wrapped with a heating tape connected to a temperature controller (MRC, Holon, Israel). In this way, hyperpolarized solutions at temperatures higher than 26° C. could be obtained. For cooling the hyperpolarized solution, the heating tape was not turned on and the dissolution medium was mixed with 0 to 4 mL of D2O at 2° C. in a collection tube placed in ice-water bath in the fringe field of the magnet, prior to injection.
(§1) ^15N-NMR spectroscopy was performed in a 5.8T NMR spectrometer (RS2D, Mundolsheim, France), using a 10 mm broad-band NMR probe. The chemical shift scale of the spectra presented herein was calibrated based on a separate measurement of a [^15N2]urea standard sample (4M in H2O:D2O 80:20), carried out prior to hyperpolarized ^15N acquisitions, calibrating the [^15N2]urea signal to −306 ppm (relative to nitromethane). For enhancement factor calculation, the spectra were collected with a high flip angle of […] and a repetition time of 2 s. For T1 calculation, the spectra were acquired with a low flip angle of […] and a longer repetition time of 5-10 s.
The temperature in the NMR tube was continuously monitored using an NMR compatible temperature probe (Osensa, Burnaby, BC, Canada).
Determination of the T1 of the hyperpolarized sites was performed by curve fitting of the signal decay to the following equation: S(t)=S0·e^−t/T^1·(cos θ)^t/TR, in which TR, the time between excitations, and θ, the nutation angle of excitation, are known. Curve fitting was performed using Matlab (Mathworks, Natick, Mass., USA).

[7] = Protocol: as §1
The absolute enhancement factor was determined by comparing the maximal SNR of the magnitude signal multiplied by the linewidth at half-height obtained under hyperpolarized conditions to the intensity of the thermal equilibrium signal of the same sample (analyzed in the same way). The spectrum at thermal equilibrium was acquired with the same nutation angle under fully relaxed conditions. The same spectral acquisition parameters (spectral width, number of points, receiver gain) and processing parameters (apodization, zero-filling) were used in the analysis of both spectra and the thermal equilibrium signal was corrected for the number of scans.
in the same spectrometer used to record the hyperpolarized signal (5.8T), as described in the Methods section, and then projected to the expected enhancement factors at a common clinical scanner at 1.5T. Enhancement factors were calculated with reference to a spectrum of the same sample.

[8] = remark: listed apart in the source
Protocol: The small amounts of hyperpolarized solution were added to the blood sample at 0, 3, 6, 7.25, and 9.17 min from arrival of the solution to the collection tube.

[9] = remark: listed apart in the source
Protocol: For this reason it was important to determine also the potential conversion to hyperpolarized [^15N]nitrite in human saliva.
To test for the presence of [^15N]nitrite in this saline-saliva sample after the hyperpolarized state had decayed, the same sample was scanned at thermal equilibrium as well. The sample was scanned for 20 h, at room temperature.
(§2) In the next step, this solution was divided into 2 samples, in the following manner: 3 mL of this solution were combined with 0.75 mL of human saliva and the combined solution was scanned for 5 days. The rest of the solution (without human saliva) was kept outside the magnet at room temperature.

[10] = remark: listed apart in the source
Protocol: Then, 4.59 mL saline and 0.66 mL of D2O were added to this mixture. This solution was transferred to an NMR tube and scanned for 5 days. ^15N fully-relaxed spectra were recorded in blocks of about 4 h, whereas each block consisted of 720 averages with a 30 flip angle and a repetition time of 20 s.
as §2

[11] = tested on: breast tumor bearing mouse; settings: 50 mM solution injected

C[N+](C)(C)CCOP(=O)([O-])OC[C@H](O)CO [GPC, glycerophosphocholine]
safe dose for an intravenous injection [1]: 521 mg/kg
safe dose for an intravenous injection [2]: 781 mg/kg
effects of daily intravenous injection [3]: only mild and reversible mood changes and no mortality

[2H]C([2H])([2H])[15N+](CCOP(=O)([O-])OCC(O)CO)(C([2H])([2H])[2H])C([2H])([2H])[2H] (stereo not drawn) [[^15N,D9]GPC, [^15N,D9]glycerophosphocholine]
^15N T1 (estimated) [4]: about 6 min

[2H]C([2H])([2H])[15N+](CCO)(C([2H])([2H])[2H])C([2H])([2H])[2H] [[^15N,D9]choline]
^15N T1 [5]: about 6 min

O=[15N+]([O-])[O-].[Na+] [[^15N]nitrate, sodium [^15N]nitrate]
dependence of T1 on temperature ([6]; 34-50° C.): does not change
increase of T1 in 2nd min versus 1st min ([6]; D2O): 43%
T1 in the 1st min of hyperpolarization decay ([6]; D2O (n = 4)): 81 ± 20
T1 in the 2nd min of hyperpolarization decay ([6]; D2O (n = 4)): 116 ± 7
T1 in the 1st min of hyperpolarization decay ([6]; H2O (n = 2)): 99 ± 3
T1 in the 2nd min of hyperpolarization decay ([6]; H2O (n = 2)): 99 ± 5
^15N polarization ([7]; corresponds to enhancement factor 5,298): 1%
enhancement factor extrapolated to clinical MRI field of 1.5T ([7]; extrapolated from 5,298 at 5.8 T): about 20,500
maximal enhancement factor ([7]; first signal in solution, 5.8 T, 2.5 h polarization at 1.5-1.6 K): 5,298
percent polarization of the ^15N ([7]; physiological saline, HP vs TE spectra FIG. 3C/3D, 30° nutation angle): 0.6%
T1 in the 1st min of hyperpolarization decay ([8]; Blood (n = 3), 0-60 s): 27 ± 0.4
T1 in the 2nd min of hyperpolarization decay ([8]; Blood (n = 3), 65-120 s): 48 ± 1
increase of T1 in 2nd min versus 1st min ([8]; blood): 78%
T1 in blood ([8]; decay 1 of consecutive injections, error = 95% CI of fit): 29 ± 2 s
T1 in blood ([8]; decay 2 of consecutive injections, error = 95% CI of fit): 30 ± 3 s
T1 ([8]; saline/whole human blood mixture (4 mL + 10 mL), 25 mM, 32-36° C., error = 95% CI of fit): 29 ± 1 s
T1 upon mixing with whole blood ([8]; three measurements in two different blood samples): 29 ± 1 s
conversion rate of nitrate to nitrite [9]: about 3.8 mole per day per 0.75 mL of saliva
signals in saline-saliva sample [9]: about equal signals of [^15N]nitrate and [^15N]nitrite
T1 in the 1st min of hyperpolarization decay ([9]; Saline + saliva (n = 1), 0-60 s): 116
signals in saline solution ([10]; 22 mM with glucose 2.7 mM in saline, scanned 5 days, room temperature, FIG. 5A): Only the [^15N]nitrate signal appears in the spectrum
conversion to [^15N]nitrite in saline without saliva ([10]; additional 5 days scan started after 14 days at room temperature, FIG. 5C): no conversion to [^15N]nitrite was observed
stable in saline solution ([10]; room temperature): at least 19 days
mouse vascular system in ^15N MR image [11]: enhanced in the MR image
tumor tissue in ^15N MR image [11]: enhanced in the MR image
